In US7414042B2, “Method and composition for selectively inhibiting melanoma” (The Board of Trustees of The University of Illinois, priority 1995, dated 2008):
Converted amounts (≈) assume the structure as drawn. “Also recorded” adds a separate entry of the source.

Assays:
[1] = test system: human melanoma cells (MEL-2); test: In vivo activity against unestablished MEL-2 tumors in athymic mice; set-up: species or system athymic (nude) mice
Description: To test the in vivo ability of betulinic acid to serve as an antineoplastic agent against malignant melanoma, a series of studies was performed with athymic (nude) mice injected subcutaneously with human melanoma cells (MEL-2). The initial study investigated the activity of betulinic acid against unestablished tumors. Treatment with betulinic acid began on day 1, i.e., 24 hours, following tumor cell injection. […] Such a discovery is important for individuals who are predisposed to melanoma due to hereditary or environmental factors.
In particular, the data plotted in FIG. 1 was derived from experiments wherein four week old athymic mice were injected subcutaneously in the right flank with 3.0×10^8 UISO MEL-2 cells. UISO MEL-2 is a cell line derived from metastatic melanoma from human pleural fluid. Drug treatment was initiated on the day following tumor cell injection and continued every fourth day for a total of six doses. Four control animals received 0.5 ml intraperitoneal (IP) of PVP control solution, while treated animals (4 per group) received 50, 250 or 500 mg/kg/dose IP betulinic acid/PVP in deionized H2O. Betulinic acid was coprecipitated with PVP to increase solubility and bioavailability. The mice were weighed, and the tumors measured with a micrometer every other day throughout the study. […]

[2] = test system: UISO MEL-1 cells; test: In vivo activity against MEL-1 tumors in athymic mice; details: 5, 50 or 250 mg/kg/dose IP betulinic acid/PVP every fourth day, six doses
Description: In particular, with respect to FIGS. 4 and 5, four week old athymic mice were injected subcutaneously in the right flank with 5.0×10^8 UISO MEL-1 cells. Drug treatment was initiated on the day following tumor cell injection and continued every fourth day for a total of six doses. Four control animals received 0.5 ml intraperitoneal (IP) saline, while treated animals (4 per group) received 5, 50 or 250 mg/kg/dose IP betulinic acid/PVP in dd H2O. The mice were weighed, and tumors were measured with a micrometer every third day throughout the study. Treated animals were sacrificed and autopsied on day 41, when the mean tumor volume in the control mice was approximately 0.5 cm^3. The control mice then received six doses of 50 mg/kg every fourth day beginning day 41 and were sacrificed and autopsied on day 71.

[3] = test system: human melanoma cells (MEL-2); test: In vivo activity against established MEL-2 melanomas in athymic mice; details: treatment from day 13, IP every third day; betulinic acid/PVP 250 mg/kg/dose, DTIC 4 mg/kg/dose
Description: Next, in vivo testing of betulinic acid was performed on established melanomas. In this study, treatment was withheld until day 13, by which time a palpable tumor mass was present in all mice.
In particular, with respect to FIG. 2, four-week-old athymic mice were injected with 5×10^8 MEL-2 cells subcutaneously in the right flank. Four treatment groups of five mice each were studied. In one group, the mice received 250 mg/kg/dose of IP betulinic acid/PVP every third day for six total doses initiated the day following tumor cell injection. The control group received 0.5 ml IP saline. A DTIC treatment group received 4 mg/kg/dose IP DTIC every third day from day 13 to day 28 of the study. The betulinic acid treatment group received 250 mg/kg/dose IP betulinic acid/PVP every third day from day 13 to day 27. The control and DTIC-treated mice were sacrificed and autopsied on day 36 due to their large tumor burden. The remaining mice were sacrificed and autopsied on day 41.

[4] = test system: MEL-3; test: Dose-response study, additional human melanoma cell line; format: cell-based
Description: (§1) Moreover, the cytotoxic response mediated by betulinic acid is not exclusively limited to the MEL-2 melanoma cell line.
(§2) The plates were incubated for three days. […] Dose response studies were performed to generate ED50 values.

[5] = test system: MEL-4; test: as above; format: cell-based
Description: as §1, §2

For `C=C(C)[C@@H]1CC[C@]2(C(=O)O)CC[C@]3(C)[C@H](CC[C@@H]4[C@@]5(C)CC[C@H](O)C(C)(C)[C@@H]5CC[C@]43C)[C@@H]12` [Compound 10, 3β-hydroxy-lup-20(29)-ene-28-oic acid], the “tumor development, MEL-2, treatment from the day following cell injection (FIG. 2)” value ([1]; 250 mg/kg/dose IP betulinic acid/PVP every third day, six doses, p=0.0001) was “significantly inhibited tumor development”, the “inhibition of tumor growth, nonestablished MEL-2 tumors (FIG. 1)” value ([1]; 50, 250, 500 mg/kg/dose IP as betulinic acid/PVP, every fourth day, six doses from day 1, p 0.001 each dose versus control) was “effective inhibition of tumor growth; also recorded: greater inhibition of tumor growth at the highest dose” and the “activity against MEL-1 tumors (FIGS. 4 and 5)” value [2] was “showed activity against MEL-1 cells”. The “tumor growth, established MEL-2 tumors (FIG. 2)” value [3] was “successfully abrogated tumor growth; also recorded: significantly less than that observed in the DTIC-treated animals”, the “ED50 MEL-3” value [4] was 3.3 µg/mL (≈ 7.23 µM) and the “ED50 MEL-4” value [5] was 4.8 µg/mL (≈ 10.5 µM).
